In general, EC50 refers to the midpoint of the concentration-response curve. As usually defined, the IC50 is the midpoint of a concentration-inhibition curve.

Several values for one entry are separate records, joined by “and”; a condition that tells them apart may be missing. Equal values may be shown once. Read-outs that look alike come from different tables or passages of the source. Where only a bound is given, the exact number is not on record here.

Series [1] concerns DBF mice. The note with it: in vivo, po.
From the text: The Mouse Hypercalcemia Assay
(§1) The Mouse Hypercalcemia Assay is a six day hypercalcemia test for toxicity and selectivity.
(§2) (4) Materials and Method for the Mouse Hypercalcemia Assay:
(§3) Weanling, virus-antibody-free, five to six weeks old female DBF mice (Harlan, Indianapolis, Ind.) are used for all the studies. Animals are allowed to acclimate to local vivarium conditions for 2 days. […] The animals then are divided into groups with 4-5 mice per group. Different doses of test compounds prepared in 10% Ethanol and 90% sesame oil are administered to mice orally via gavage for 6 days. 1α-25(OH)2D3 0.5 μg/kg/d was also given to one group of mice as the positive control. […] Raw data of group differences is assessed by analysis of variance (ANOVA) using Fisher's protected least significant difference (PLSD) where the significance level was P<0.05.
In series [2] the target is T1, RXR-VDR heterodimer (Homo sapiens, UniProt P11473).
T1 construct: Add the Gal4-RXR-DEF and VP16-VDR-LBD; expressed in transfected cells; host or cells: SaOS-2 cells
T1 sequence (P11473 127-423 limits assumed): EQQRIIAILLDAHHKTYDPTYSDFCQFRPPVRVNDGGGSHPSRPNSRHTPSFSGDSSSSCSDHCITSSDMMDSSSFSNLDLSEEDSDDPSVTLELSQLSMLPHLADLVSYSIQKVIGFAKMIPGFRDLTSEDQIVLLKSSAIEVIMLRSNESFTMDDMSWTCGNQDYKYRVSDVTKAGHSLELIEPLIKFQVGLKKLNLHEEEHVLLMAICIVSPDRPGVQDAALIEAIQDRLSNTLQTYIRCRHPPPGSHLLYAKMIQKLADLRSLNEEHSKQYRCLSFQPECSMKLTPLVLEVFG
T1 sequence (P19793 201-462 partner limits assumed): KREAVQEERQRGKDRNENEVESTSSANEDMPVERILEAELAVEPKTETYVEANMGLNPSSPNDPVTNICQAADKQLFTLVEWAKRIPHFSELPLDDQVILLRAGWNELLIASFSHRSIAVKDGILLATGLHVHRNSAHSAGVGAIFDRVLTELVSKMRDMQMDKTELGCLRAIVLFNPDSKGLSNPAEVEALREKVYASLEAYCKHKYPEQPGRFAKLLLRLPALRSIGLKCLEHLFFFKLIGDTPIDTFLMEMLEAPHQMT
In words: RXR-VDR heterodimerization assay (SaOS-2 cells). The format is cell-based. Conditions: Gal4-RXR / VP16-VDR-LBD luciferase reporter, Table 1. The procedure:
1. The RXR-VDR HeterodimerAssay:
This assay provides the VDR activity of a test compound.
(1) Materials and Method for RXR-VDR Heterodimerization Assay:
Luciferase Assay Reagent: • Use Steady-Glo Luciferase Reagent from Promega (Cat #E2550) Consists of: a. E2533 Assay Substrate, lyopholized product and b. E2543 Assay Buffer. • Thaw at room temperature • Store Cell Harvesting Aspirate media from culture flask, rinse cells with HBSS and aspirate. Add trypsin and incubate. When cells appear detached, resuspend cells in growth media. Transfer into a new flask with fresh growth media for passaging the cells. Plate well plates and two extra plates A. Cell Count Mix the cell suspension using pipette Use Hematocytometer to count the cells Load cell suspension onto the hemocytometer chamber Count cells. […] In sterile flask add cell suspension to plating media. Mix. Add cells/well. Place the cells in the incubator. Cells should be about 75% confluent prior to transfection. DAY 2: Transfection Step 1: DNA and Media Add plain DMEM media to tubes for mixing the DNA Add the Reporter gene pFR-LUC Add the Gal4-RXR-DEF and VP16-VDR-LBD Step 2: FuGENE and Media Prepare plain DMEM media in a ubes for mixing FuGENE Add FuGENE 6 Transfection Reagent Incubate Step 3: FuGENE, DNA and Media Complex Add FuGENE Media complex from step 2 to DNA Media complex from step 1 Incubate Step 4: FuGENE, DNA and Media Complex to-well plate Add FuGENE-DNA-Media complex from step 3 to each plate Incubate. […] Day 4: Luciferase Assay Read the plates after drug treatment Remove part of media from all the wells and leave remainder Add Steady-Glo Luciferase Reagent mixture/wells Incubate Count each well using a Luminescence counter, Top Count NXT by Packard
Set a delay between plates to reduce the background.

In series [3] the test system is IL-10. In words: Human IL-10 induction assay in PBMCs. Type of series: cell-based. Conditions: PBMC; TPA/PHA treated human PBMCs; Table 2. The source says: 6. The IL-10 Induction Assay
This is an in vitro efficacy assay for psoriasis, abscess and adhesion. Psoriasis involves both keratinocytes and immune cells. IL-10 is a unique cytokine because it is anti-inflammatory and immunosuppressive. This assay tells us whether a VDRM is able to function as an agonist in PBMCs ([…]) or not.
(6) Materials and Method for Human IL-10 Induction Assay:
Isolation of Peripheral Blood Mononuclear Cells (PBMCs):
Stimulation of PBMC: • L. Prepare TPA in DMSO. • M. Dissolve PHA in water. • N. Plate TPA/PHA treated PBMCs in well plates. • O. Incubate.
Sample Collection and Assay: • S. Remove all the cells by centrifugation and assay the supernatant for IL-10 by immunoassay. • T. Perform IL-10 assay using anti-human IL-10 antibody coated beads, as described by the manufacturer (Linco Research Inc., St. Charles, Mo.). (8) CaT1 Assay

Series [4] has as its system KERtr cells. In words: Keratinocyte proliferation assay. Type of series: cell-based. Conditions: Homo sapiens, 72 h, BrdU incorporation, Table 2, read-out: Kera. Prolif. IC50. Here is the method:
5. The Keratinocyte Proliferation Assay
This Assay is indicative for the treatment of psoriasis.
(5) The Keratinocyte Proliferation Assay:
KERtr cells (Human skin keratinocyte transformed with a retrovirus vector, obtained from ATCC) were plated in 96-well flat-bottomed plates (3000 cells/well) in 100 μl keratinocyte serum free medium supplemented with bovine pituitary extract in the absence of EGF (Life Technologies, Rockville, Md.) and incubated at 37° C. for two days. The cells were treated with various concentrations of VDR ligands (ten-fold serial dilution from 10,000 nM to 0.1 nM in triplicate), dissolved in 100 μl keratinocyte serum free medium supplemented with bovine pituitary extract in the absence of EGF and incubated at 37° C. for 72 hr. […] Potency values (IC50) values were determined as the concentration (nM) of compound that elicited a half-maximal response.
For orientation: Dividing cells build labelled thymidine or BrdU into new DNA.

Series [5] concerns the target T2, VDR (Homo sapiens, UniProt P11473).
T2 construct: the receptor expression vector pGal4-VDR-LBD (10 ng); expressed in transfected cells; host or cells: Caco-2 cells
T2 sequence (P11473 127-423 limits assumed): T1 sequence (P11473 127-423 limits assumed)
In words: Caco-2 cell co-transfection assay (VDR CTF). Conditions: Caco-2 cells, pGal4-VDR-LBD luciferase co-transfection; Table 1. Type of series: cell-based. The procedure: 2. The Caco-2 Cell Co-Transfection Assay:
The Caco-2 cell assay is an indicator for the undesirable condition of hypercalcemia. This co-transfection assay is a surrogate assay for in vivo calcemic activity of VDR ligands. […] Preferred assay results are greater than 1000 nM.
(2) Materials and Method for The Caco-2 Cell Assay:
Caco-2 cells, grown in phenol red free, DMEM (Invitrogen, Carlsbad, Calif.) containing 10% charcoal-stripped FCS (Hyclone, Logan, Utah), were transfected with Fugene 6 reagent (Roche Diagnostics, Indianapolis, Ind.). Cells (5000/well) were plated 18 h before transfection in a 96 well plate. The Cells were transfected with Gal4-responsive reporter pFRLuc (150 ng, Stratagene, La Jolla Calif.) and the receptor expression vector pGal4-VDR-LBD (10 ng), along with Fugene 6 reagent (0.2 μl/well). The DNA-Fugene complex was formed by incubating the mixture for 30 min at room temperature. The cells were transfected in triplicate for 5 h, and treated with various concentrations of VDR ligands (form 0.01 nM to 10,000 nM concentration range) 18 h post-transfection. The luciferase activity was quantified using Steady-Glo reagent kit (Promega, Madison, Wis.) as per manufacturer's specifications.

Series [6] relates to rat osteocalcin promoter. In words: OCN (osteocalcin) promoter assay. Type of series: cell-based. The note with it: RG-15 (ROS 17/2.8) cells, 48 hr treatment, Table 1. The procedure:
3. The OCN (Osteocalcin) Promoter Assay
The OCN Promoter Assay is an indicator and marker for osteoporosis. […] Preferred assay results are less than 50 nM.
(3) Materials and Method for the OCN Promoter Assay:
The activation of osteocalcin by VDR ligands was evaluated in a rat osteoblast-like cell line RG-15 (ROS 17/2.8) stably expressing rat osteocalcin promoter fused with luciferase reporter gene. […] Confluent RG-15 cells maintained in DMEM/F-12 medium (3:1) containing 5% FBS, 300 μg/ml G418 and at 37° C. under 5% CO2/95% air atmosphere were trypsinized (0.25% trypsin) and plated into white opaque 96-well cell culture plates (25000 cells/well). After 24 hr, cells (in DMEM/F-12 medium+2% FBS) were treated with various concentrations of compounds, dissolved in DMSO. The final DMSO concentration remained at 0.01% (v/v). After 48 hr treatment, the medium was removed, cells were lysed with 50 μl of lysis buffer (From Luciferase reporter assay system, Roche Diagnostics, Indianapolis, Ind.) and assayed for luciferase activity using the Luciferase Reporter Gene Assay kit from Boehringer Mannheim as per manufacturer's specifications.

The test system of series [7] is DBF mice. In words: Mouse hypercalcemia assay. Conditions: oral gavage for 6 days, serum ionized calcium 6 hours after last dosing; Table 1.
From the text: The Mouse Hypercalcemia Assay
as §1, §2, §3

As to `C=C1/C(=C\C=C2/CCC[C@]3(C)[C@@H]([C@H](C)CCCC(C)(C)O)CC[C@@H]23)C[C@@H](O)C[C@@H]1O` [AA, 1α,25-dihydroxyvitamin D3], the “Mouse Hypercal” value in series [1] worked out at 0.06 µg/kg/day.
For `CCC(CC)(c1ccc(OCC(=O)C(C)(C)C)c(C)c1)c1cc2cc(C(=O)NCC(=O)O)ccc2s1` [Ex 19, [(2-{1-[4-(3,3-Dimethyl-2-oxo-butoxy)-3-methyl-phenyl]-1-ethyl-propyl}-benzo[b]thiophene-5-carbonyl)-amino]-acetic acid], the EC50 was 114 nM and 21 nM in series [2]; 815 nM in series [5]; 4.7 nM in series [6] (Rattus norvegicus, 48 h). Also, the values for the concentration for half-maximal inhibition (IC50) in series [3] and in series [4] were 149 nM and 16 nM, respectively. In addition, the “Mouse Hypercal” value in series [7] is >300 µg/kg/day.
`CCC(CC)(c1ccc(OCC(=O)C(C)(C)C)c(C)c1)c1ccc2cc(C(=O)O)sc2c1` [Ex. 1, 6-{1-[4-(3,3-dimethyl-2-oxo-butoxy)-3-methyl-phenyl]-1-ethyl-propyl}-benzo[b]thiophene-2-carboxylic acid] came in with an IC50 in series [3] of 109 nM. Also, the EC50 stood at 432 nM in series [5]; 1 nM in series [6]; 2 nM in series [6] (Rattus norvegicus, 48 h). In addition, in series [7], the “Mouse Hypercal” value was <300 µg/kg/day.
Take `CCC(CC)(c1ccc(OCC(O)C(C)(C)C)c(C)c1)c1ccc2cc(C(=O)O)sc2c1` (stereo not shown) [Ex. 2, 6-{1-ethyl-1-[4-(2-hydroxy-3,3-dimethyl-butoxy)-3-methyl-phenyl]-propyl}-benzo[b]thiophene-2-carboxylic acid]: the EC50 stood at 30 nM in series [2]; 411 nM in series [5]; 1 nM in series [6] (Rattus norvegicus, 48 h). The figures for the IC50 in series [3] and in series [4] were 24 nM and 1 nM, respectively.
Consider `CCC(CC)(c1ccc(OCC(=O)C(C)(C)C)c(C)c1)c1ccc2cc(C(=O)NCC(=O)O)sc2c1` [Ex. 5, [(6-{1-[4-(3,3-dimethyl-2-oxo-butoxy)-3-methyl-phenyl]-1-ethyl-propyl}-benzo[b]thiophene-2-carbonyl)-amino]-acetic acid], for which the values for the IC50 in series [3] and in series [4] were 6 nM and 4 nM, respectively. Further, the EC50 was 342 nM in series [5] and 1 nM in series [6] (Rattus norvegicus, 48 h). The “Mouse Hypercal” value in series [7] is >300 µg/kg/day.
On to `CCC(CC)(c1ccc(OCC(=O)C(C)(C)C)c(C)c1)c1cc2ccc(C(=O)NCC(=O)O)cc2s1` [Ex. 11, [(2-{1-[4-(3,3-dimethyl-2-oxo-butoxy)-3-methyl-phenyl]-1-ethyl-propyl}-benzo[b]thiophene-6-carbonyl)-amino]-acetic acid], for which the concentration for a half-maximal effect (EC50) in series [2] stood at 45 nM; in series [5] it was 299 nM; in series [6] (Rattus norvegicus, 48 h), 0.2 nM. Moreover, the IC50 in series [3] was 10 nM; in series [4] it was 2 nM. For the same compound, in series [7], the “Mouse Hypercal” value was >300 µg/kg/day.

The record behind these values is patent US7897789B2, “Vitamin D receptor modulators” (Eli Lilly and Company, priority 2003, dated 2011).
